Tests used:
Type in all cases: functional, cell-based
A549 = test: Cytotoxicity against human A549 cells after 72 hrs by MTT assay; conditions: A549, 72 h
HCT-8 = test: Cytotoxicity against human HCT8 cells after 72 hrs by MTT assay; conditions: HCT-8, 72 h
BGC-823 = test: Cytotoxicity against human BGC823 cells after 72 hrs by MTT assay; conditions: BGC-823, 72 h
A2780 = test: Cytotoxicity against human A2780 cells after 72 hrs by MTT assay; conditions: A2780, 72 h
Bel-7402 = test: Cytotoxicity against human Bel7402 cells after 72 hrs by MTT assay; conditions: Bel-7402, 72 h

| Compound | IC50 (A549) | IC50 (HCT-8) | IC50 (BGC-823) | IC50 (A2780) | IC50 (Bel-7402) |
| --- | --- | --- | --- | --- | --- |
| O=C1N[C@@H](Cc2c[nH]c3ccccc23)C(=O)N[C@H]1CO | > 10000 nM | > 10000 nM | > 10000 nM | > 10000 nM | > 10000 nM |
| CN1C(=O)[C@]23SSS[C@]1(CO)C(=O)N2[C@H]1Nc2ccccc2[C@@]1(c1c[nH]c2ccccc12)[C@@H]3O | 1530 nM | 1180 nM | 1460 nM | 420 nM | 750 nM |
| CS[C@]1(CO)NC(=O)[C@](Cc2c[nH]c3ccccc23)(SC)NC1=O [CHETOSEMINUDIN C] | > 10000 nM | > 10000 nM | > 10000 nM | > 10000 nM | > 10000 nM |
| CN1C(=O)[C@]23SS[C@@]1(CO)C(=O)N2[C@H]1Nc2ccccc2C1([C@@]12c4ccccc4N[C@@H]1N1C(=O)[C@]4(CO)SSS[C@]1(C(=O)N4C)[C@H]2O)[C@@H]3O (stereo partly drawn) [CHETRACIN B] | 22 nM | 13 nM | 11 nM | 28 nM | 3 nM |
| CN1C(=O)[C@]23SSS[C@@]1(CO)C(=O)N2[C@H]1Nc2ccccc2C1([C@@]12c4ccccc4N[C@@H]1N1C(=O)[C@]4(CO)SSS[C@]1(C(=O)N4C)[C@H]2O)[C@@H]3O (stereo partly drawn) [CHETRACIN C] | 720 nM | 490 nM | 700 nM | 580 nM | 380 nM |
| CS[C@@]1(CO)C(=O)N2[C@H]3Nc4ccccc4C3([C@@]34c5ccccc5N[C@@H]3N3C(=O)[C@](CO)(SC)N(C)C(=O)[C@@]3(SC)[C@H]4O)[C@H](O)[C@]2(SC)C(=O)N1C (stereo partly drawn) [CHETRACIN D] | 140 nM | 1060 nM | 1830 nM | 1650 nM | 810 nM |
| CN1C(=O)[C@]23SS[C@@]1(CO)C(=O)N2[C@H]1Nc2ccccc2C1([C@@]12c4ccccc4N[C@@H]1N1C(=O)[C@]4(CO)SS[C@]1(C(=O)N4C)[C@H]2O)[C@@H]3O (stereo partly drawn) [MELINACIDIN IV] | 22 nM | 52 nM | 47 nM | 54 nM | 5 nM |
| CS[C@@]1(CO)C(=O)N2[C@H]3N(C=O)c4ccccc4[C@@]3(c3c[nH]c4ccccc34)[C@H](O)[C@]2(SC)C(=O)N1C [OIDIOPERAZINE A] | > 10000 nM | > 10000 nM | > 10000 nM | > 10000 nM | > 10000 nM |
| CON1C(=O)C(CO)NC(=O)C1(O)Cc1c[nH]c2ccccc12 (stereo not drawn) [OIDIOPERAZINE B] | > 10000 nM | > 10000 nM | > 10000 nM | > 10000 nM | > 10000 nM |
| COC1(CO)NC(=O)/C(=C/c2c[nH]c3ccccc23)NC1=O (stereo not drawn) [OIDIOPERAZINE C] | > 10000 nM | > 10000 nM | > 10000 nM | > 10000 nM | > 10000 nM |
| C=C1NC(=O)C(Cc2c[nH]c3ccccc23)(OC)N(OC)C1=O (stereo not drawn) [OIDIOPERAZINE D] | > 10000 nM | > 10000 nM | > 10000 nM | > 10000 nM | > 10000 nM |
| CC(=O)O[C@H]1C(=O)[C@@]2(C)[C@H]([C@H](OC(=O)c3ccccc3)[C@]3(O)C[C@H](OC(=O)[C@H](O)[C@@H](NC(=O)c4ccccc4)c4ccccc4)C(C)=C1C3(C)C)[C@]1(OC(C)=O)CO[C@@H]1C[C@@H]2O [PACLITAXEL] |  |  | < 1 nM | < 1 nM | 6 nM |
| CS[C@@]1(CO)C(=O)N2[C@H]3Nc4ccccc4[C@@]3(c3c[nH]c4ccccc34)[C@H](O)[C@]2(SC)C(=O)N1C [T988 B] | > 10000 nM | > 10000 nM | > 10000 nM | > 10000 nM | > 10000 nM |
| CN1C(=O)[C@]23SS[C@]1(CO)C(=O)N2[C@H]1Nc2ccccc2[C@@]1(c1c[nH]c2ccccc12)[C@@H]3O [T988 C] | 1240 nM | 700 nM | 670 nM | 480 nM | 550 nM |

From ChEMBL document CHEMBL2046435, “Cytotoxic metabolites from the antarctic psychrophilic fungus Oidiodendron truncatum” (J Nat Prod, 2012)
